In US10792289B2 (Horizon Orphan LLC, priority 2009, dated 2020):

Legend:
P. aeruginosa = assay: Phase 2 study: P. aeruginosa density in sputum; assay type: in vivo, Pseudomonas aeruginosa; details: MITT; for Reduction in P. aeruginosa density in sputum: median Day 1 to Day 28
Protocol: (§1) The following dosage regimens (as nebulizer loaded doses) were evaluated: 120 mg QD (daily); 240 mg QD (daily); and 240 mg BID (twice daily).
Patients were assessed on Day 1, 7, 14, and 28, and then up to 28 days after completion of study drug, namely, Days 42 and 56. The end of the study was defined as the last visit of the last patient.
Efficacy was evaluated by microbiologic assessment of sputum samples, time to need for anti-pseudomonal antimicrobials, the Cystic Fibrosis Questionaire-Revised (CFQ-R), and pulmonary function tests. […] Pair-wise comparisons between all the treatment arms were conducted as secondary analyses.

stable CF patients = assay: Phase 2 study: time to need for anti-pseudomonal antimicrobials; assay type: in vivo, human; details: for Patients Requiring Anti-Pseudomonal Antimicrobials: EE population; for Number (%) of Patients Requiring Anti-Pseudomonal Antimicrobials: MITT population
Protocol: as §1
Efficacy endpoints including clinical endpoints, pulmonary function tests, and additional microbiological parameters were assessed as change from Day 1 to subsequent visits where the endpoint data was collected. Time to need for intravenous/oral/inhaled anti-pseudomonal antimicrobials were assessed from Day 1 until final visit using survival analysis. The primary population for efficacy analysis was the EE population, but efficacy endpoints were also analyzed using the MITT population.
Time to administration of intravenous/oral/inhaled anti-pseudomonal antimicrobials from Day 1 until Final visit was measured for patients with at least one of the following: decreased exercise tolerance, increased cough, increased sputum/chest congestion, and decreased appetite. The proportion of patients requiring anti-pseudomonal antimicrobials (inhaled or systemic) over time was analyzed using a Cox proportional hazards model.

[1] = combined 240 mg QD and BID, Baseline to Day 7
[2] = combined 240 mg QD and BID, Baseline to Day 14
[3] = combined 240 mg QD and BID, Baseline to Day 28
[4] = combined 240 mg QD and BID, Day 1
[5] = combined 240 mg QD and BID, Day 7
[6] = combined 240 mg QD and BID, Day 14
[7] = combined 240 mg QD and BID, Day 28

C[C@H]1COc2c(N3CCN(C)CC3)c(F)cc3c(=O)c(C(=O)O)cn1c23 [Levofloxacin, levofloxacin]
Change in P. aeruginosa density, mean (P. aeruginosa; 120 mg QD, Baseline to Day 28): −0.27 log10 CTU/g sputum
Change in P. aeruginosa density, median (P. aeruginosa; 120 mg QD, Baseline to Day 28): −0.20 log10 CTU/g sputum
P. aeruginosa density, mean (P. aeruginosa; 120 mg QD, Day 1): 7.43 log10 CTU/g sputum
P. aeruginosa density, median (P. aeruginosa; 120 mg QD, Day 1): 8.16 log10 CTU/g sputum
P. aeruginosa density, mean (P. aeruginosa; 120 mg QD, Day 7): 6.68 log10 CTU/g sputum
P. aeruginosa density, median (P. aeruginosa; 120 mg QD, Day 7): 6.98 log10 CTU/g sputum
P. aeruginosa density, mean (P. aeruginosa; 120 mg QD, Day 14): 7.33 log10 CTU/g sputum
P. aeruginosa density, median (P. aeruginosa; 120 mg QD, Day 14): 8.00 log10 CTU/g sputum
P. aeruginosa density, mean (P. aeruginosa; 120 mg QD, Day 28): 7.26 log10 CTU/g sputum
P. aeruginosa density, median (P. aeruginosa; 120 mg QD, Day 28): 7.78 log10 CTU/g sputum
Reduction in P. aeruginosa density in sputum (P. aeruginosa; 120 mg QD): approximately 58%
Change in P. aeruginosa density, mean (P. aeruginosa; 240 mg BID, Baseline to Day 7): −0.97 log10 CTU/g sputum
Change in P. aeruginosa density, median (P. aeruginosa; 240 mg BID, Baseline to Day 7): −0.76 log10 CTU/g sputum
Change in P. aeruginosa density, mean (P. aeruginosa; 240 mg BID, Baseline to Day 14): −0.81 log10 CTU/g sputum
Change in P. aeruginosa density, median (P. aeruginosa; 240 mg BID, Baseline to Day 14): −0.79 log10 CTU/g sputum
Change in P. aeruginosa density, mean (P. aeruginosa; 240 mg BID, Baseline to Day 28): −0.66 log10 CTU/g sputum
Change in P. aeruginosa density, median (P. aeruginosa; 240 mg BID, Baseline to Day 28): −0.56 log10 CTU/g sputum
P. aeruginosa density, mean (P. aeruginosa; 240 mg BID, Day 1): 7.17 log10 CTU/g sputum
P. aeruginosa density, median (P. aeruginosa; 240 mg BID, Day 1): 7.90 log10 CTU/g sputum
P. aeruginosa density, mean (P. aeruginosa; 240 mg BID, Day 7): 6.16 log10 CTU/g sputum
P. aeruginosa density, median (P. aeruginosa; 240 mg BID, Day 7): 6.53 log10 CTU/g sputum
P. aeruginosa density, mean (P. aeruginosa; 240 mg BID, Day 14): 6.32 log10 CTU/g sputum
P. aeruginosa density, median (P. aeruginosa; 240 mg BID, Day 14): 6.70 log10 CTU/g sputum
P. aeruginosa density, mean (P. aeruginosa; 240 mg BID, Day 28): 6.58 log10 CTU/g sputum
P. aeruginosa density, median (P. aeruginosa; 240 mg BID, Day 28): 6.48 log10 CTU/g sputum
Reduction in P. aeruginosa density in sputum (P. aeruginosa; 240 mg BID): approximately 96%
Change in P. aeruginosa density, mean (P. aeruginosa; 240 mg QD, Baseline to Day 7): −0.31 log10 CTU/g sputum
Change in P. aeruginosa density, median (P. aeruginosa; 240 mg QD, Baseline to Day 7): −0.18 log10 CTU/g sputum
Change in P. aeruginosa density, mean (P. aeruginosa; 240 mg QD, Baseline to Day 14): −0.44 log10 CTU/g sputum
Change in P. aeruginosa density, median (P. aeruginosa; 240 mg QD, Baseline to Day 14): −0.10 log10 CTU/g sputum
Change in P. aeruginosa density, mean (P. aeruginosa; 240 mg QD, Baseline to Day 28): −0.25 log10 CTU/g sputum
Change in P. aeruginosa density, median (P. aeruginosa; 240 mg QD, Baseline to Day 28): −0.39 log10 CTU/g sputum
P. aeruginosa density, mean (P. aeruginosa; 240 mg QD, Day 1): 7.08 log10 CTU/g sputum
P. aeruginosa density, median (P. aeruginosa; 240 mg QD, Day 1): 7.97 log10 CTU/g sputum
P. aeruginosa density, mean (P. aeruginosa; 240 mg QD, Day 7): 6.79 log10 CTU/g sputum
P. aeruginosa density, median (P. aeruginosa; 240 mg QD, Day 7): 6.95 log10 CTU/g sputum
P. aeruginosa density, mean (P. aeruginosa; 240 mg QD, Day 14): 6.63 log10 CTU/g sputum
P. aeruginosa density, median (P. aeruginosa; 240 mg QD, Day 14): 6.46 log10 CTU/g sputum
P. aeruginosa density, mean (P. aeruginosa; 240 mg QD, Day 28): 6.82 log10 CTU/g sputum
P. aeruginosa density, median (P. aeruginosa; 240 mg QD, Day 28): 7.38 log10 CTU/g sputum
Reduction in P. aeruginosa density in sputum (P. aeruginosa; 240 mg QD): approximately 74%
Largest difference in P. aeruginosa density, placebo vs levofloxacin (P. aeruginosa; Day 7): 1.44 log10 CFU/g sputum
Largest difference in P. aeruginosa density, placebo vs levofloxacin (P. aeruginosa; Day 14): 1.39 log10 CFU/g sputum
Largest difference in P. aeruginosa density, placebo vs levofloxacin (P. aeruginosa; Day 28): 1.78 log10 CFU/g sputum
Change in P. aeruginosa density, mean (P. aeruginosa; [1]): −0.65 log10 CTU/g sputum
Change in P. aeruginosa density, median (P. aeruginosa; [1]): −0.35 log10 CTU/g sputum
Change in P. aeruginosa density, mean (P. aeruginosa; [2]): −0.63 log10 CTU/g sputum
Change in P. aeruginosa density, median (P. aeruginosa; [2]): −0.40 log10 CTU/g sputum
Change in P. aeruginosa density, mean (P. aeruginosa; [3]): −0.46 log10 CTU/g sputum
Change in P. aeruginosa density, median (P. aeruginosa; [3]): −0.5 log10 CTU/g sputum
P. aeruginosa density, mean (P. aeruginosa; [4]): 7.12 log10 CTU/g sputum
P. aeruginosa density, median (P. aeruginosa; [4]): 7.91 log10 CTU/g sputum
P. aeruginosa density, mean (P. aeruginosa; [5]): 6.47 log10 CTU/g sputum
P. aeruginosa density, median (P. aeruginosa; [5]): 6.69 log10 CTU/g sputum
P. aeruginosa density, mean (P. aeruginosa; [6]): 6.48 log10 CTU/g sputum
P. aeruginosa density, median (P. aeruginosa; [6]): 6.61 log10 CTU/g sputum
P. aeruginosa density, mean (P. aeruginosa; [7]): 6.70 log10 CTU/g sputum
P. aeruginosa density, median (P. aeruginosa; [7]): 6.90 log10 CTU/g sputum
Patients Requiring Anti-Pseudomonal Antimicrobials (stable CF patients; 120 mg QD): 20.0%
Patients Requiring Anti-Pseudomonal Antimicrobials (stable CF patients; 240 mg BID): 20.6%
Patients Requiring Anti-Pseudomonal Antimicrobials (stable CF patients; 240 mg QD): 25.7%
Patients Requiring Anti-Pseudomonal Antimicrobials (stable CF patients; Combined 240 mg QD and BID): 23.2%
Number (%) of Patients Requiring Anti-Pseudomonal Antimicrobials (stable CF patients; 120 mg QD): 18.4%
Number (%) of Patients Requiring Anti-Pseudomonal Antimicrobials (stable CF patients; 240 mg BID): 20.5%
Number (%) of Patients Requiring Anti-Pseudomonal Antimicrobials (stable CF patients; 240 mg QD): 27.0%
Number (%) of Patients Requiring Anti-Pseudomonal Antimicrobials (stable CF patients; Combined 240 mg QD and BID): 23.7%
